Consider five molecules from article PMC3720801, “A Proline-Hinge Alters the Characteristics of the Amphipathic α-helical AMPs” (PLoS ONE, 2013).

Converted amounts (≈) assume the structure as drawn. Peptide text beside a SMILES is read from it.

Assay [1] has as its system Salmonella typhimurium (KCTC 1926). The following applies: broth microdilution, 1% bactopeptone, 5×10^3 CFU/ml, 10 h at 37°C, OD 620 nm, triplicate.
The subject of assay [2] is Candida albicans (KCTC 7270). As to conditions: MTT assay, YPD pH 5.5, 24 h at 28°C, absorbance 570 nm, triplicate.
The subject of assay [3] is Trichosporon beigelii (KCTC 7707). Put plainly: Antifungal MTT assay MIC. Format: cell-based. As to conditions: YPD pH 5.5, 24 h at 28°C, absorbance 570 nm, triplicate. In general terms: Formazan colour is commonly taken as a measure of viable cells.
Assay [4] has as its system Proteus vulgaris (KCTC 2433). As to conditions: broth microdilution, 1% bactopeptone, 5×10^3 CFU/ml, 10 h at 37°C, OD 620 nm, triplicate. For orientation: Broth dilution looks for growth in wells or tubes with falling amounts of substance.
Another assay relates to S. aureus (KCTC 1621). The following applies: broth microdilution, 1% bactopeptone, 5×10^3 CFU/ml, 10 h at 37°C, OD 620 nm, triplicate.
Assay [5] deals with Pseudomonas aeruginosa (KCTC 1637). As to conditions: broth microdilution, 1% bactopeptone, 5×10^3 CFU/ml, 10 h at 37°C, OD 620 nm, triplicate.
The test system of assay [6] is Staphylococcus epidermidis (KCTC 1917). The following applies: broth microdilution, 1% bactopeptone, 5×10^3 CFU/ml, 10 h at 37°C, OD 620 nm, triplicate.
The subject of assay [7] is Saccharomyces cerevisiae (KCTC 7296). The following applies: MTT assay, YPD pH 5.5, 24 h at 28°C, absorbance 570 nm, triplicate.
Assay [8] deals with Escherichia coli (KCTC 1682). As to conditions: broth microdilution, 1% bactopeptone, 5×10^3 CFU/ml, 10 h at 37°C, OD 620 nm, triplicate.
For assay [9], the system named is Bacillus subtilis (KCTC 1918). As to conditions: broth microdilution, 1% bactopeptone, 5×10^3 CFU/ml, 10 h at 37°C, OD 620 nm, triplicate.
Assay [10] can be described thus: FITC-dextran leakage from liposomes. As to conditions: 10 µM peptide, peptide/lipid 1/10, 25°C, FITC fluorescence. Here is the method:
FITC-labeled dextrans (FD-4, 10, 20, 40, 70 and 500) were utilized as model cytoplasmic components. FD (fluorescein isothiocyanate dextrans), with average molecular masses of 4, 10, 20, 40, 70, and 500 kDa were all purchased from the Sigma Chemical Co. (St. Louis, MO). FD-entrapping liposomes (unilamellar vesicles) with different lipid compositions were prepared using the reverse-phase evaporation method, after which the concentrations of the FD-entrapping vesicles were determined in triplicate using a phosphorus assay. To prepare FD-entrapping liposomes, a buffer solution (buffer II: PBS) containing 2 mg/ml of the FD was sonicated for 30 min with a lipid solution in chloroform (20 mg/ml) on ice. The chloroform was then gradually removed using a rotary vacuum evaporator at 25°C, resulting first in the formation of a viscous gel and then a liposome suspension. Buffer (2 ml) was added, and the suspension was evaporated further to remove the remaining solvent. The liposome suspensions were then centrifuged and washed for several cycles at 22,000×gav for 30 min in order to remove unentrapped-FD. The washed liposomes were extruded 30 times through polycarbonate filters (two stacked 0.4-µm pore size filters) using an Avanti Mini-Extruder (Avanti Polar Lipids inc., Alabaster, AL) to obtain liposomes of homogeneous size (∼400 nm). Aliquots of the peptide solutions at appropriate concentrations were incubated with a suspension of FD-loaded liposomes (100 µM) for 1–20 min at 25°C, and were then centrifuged for 30 min at 22,000×g. The supernatants were recovered and the leakage was recorded by monitoring the FITC fluorescence intensity (excitation wavelength: 494 nm, emission wavelength: 520 nm). 100% leakage was achieved by addition of Triton X-100 to a final concentration of 1 mM. The percent leakage value was then plotted.

The next assay relates to T. begellii. In words: Confocal laser-scanning microscopy, localization of FITC-conjugated peptides. Format: cell-based. As to conditions: 15 min at 28°C.
Assay [11] concerns plasmid DNA (pBluescript SK(+)). In words: DNA gel retardation. In kind it is binding. As to conditions: plasmid DNA 100 ng, 10 min at 37°C, agarose gel.
The nature of assay [12]: In vitro binding assay to insoluble polysaccharide. As to conditions: 100 µg polysaccharide + 5 µg peptide, room temperature 1 h, SDS-PAGE. Here is the method:
Chitin (β-1,4-N-acetyl-D-glucosamine), chitosan (β-1,4-D-glucosamine), cellulose (β-1,4-glucan), curdlan (β-1,3-glucan) and peptidoglycan (β-1,4-glycosidic linkage between N-acetyl muramic and N-acetylglucosamine) were used for the in vitro binding assay of Anal 3-Pro. One hundred µg of each insoluble polysaccharide was added in 5 µg of purified Anal 3-Pro and incubated at room temperature with mild agitation for 1 h. The mixture was centrifuged (10,000×g for 2 min) and the pellet was washed three times with 1 ml of washing buffer (10 mM Tris, pH 7.5, 500 mM NaCl, 0.02% Tween 20). The peptide bound to insoluble polysaccaharide was detached by adding SDS-polyacrylamide gel electrophoresis sample buffer.

The subject of a further assay is C. albicans cells. Put plainly: Flow cytometric analysis of cell membrane permeability (PI uptake). Format: cell-based, Candida albicans. The following applies: 30 min on ice, 12.5 µM Anal 3 or melittin, peptides at MIC. Here is the method:
Membrane integrity following peptide treatment was evaluated using flow cytometry. Anal 3, Anal 3-Pro or melittin (control) was added to C. albicans cells (2×10^5 cells in YPD media) to the MIC, after which cell membrane permeabilization was detected by incubating the treated cells in 50 µg/ml propidium iodide (PI) for 30 min at 4°C. After removing the unbound dye by extensively washing with PBS, the cells were subjected to flow cytometric analysis using a FACScalibur flow cytometer (Becton Dickinson, San Jose, CA). PI fluorescence was monitored in the FL2-H channel.
For orientation: In flow cytometry, cells or beads pass a laser one at a time.

With `CC[C@H](C)[C@H](NC(=O)[C@H](CCCCN)NC(=O)[C@H](CO)NC(=O)[C@H](Cc1ccccc1)NC(=O)[C@H](CO)NC(=O)[C@H](CCCCN)NC(=O)[C@H](CCC(=O)O)NC(=O)[C@H](CC(C)C)NC(=O)[C@H](CCCNC(=N)N)NC(=O)[C@H](CCCCN)NC(=O)[C@H](Cc1ccccc1)NC(=O)[C@@H](NC(=O)[C@H](CCCCN)NC(=O)[C@H](CCCCN)NC(=O)[C@H](C)N)C(C)C)C(=O)N[C@@H](CCC(N)=O)C(=O)N[C@@H](CC(N)=O)C(=O)N[C@@H](CC(=O)O)C(=O)N[C@@H](CCCCN)C(N)=O` [Anal 4] (H-AKKVFKRLEKSFSKIQNDK-NH2), in assay [1], the “MIC G(−) ST” value amounted to 1.56 µM (≈ 3.58 µg/mL). Also, the “MIC Yeast CA” value in assay [2] was 50 to 100 µM. In addition, the “MIC Yeast TB” value in [3] is 50 µM (≈ 115 µg/mL). For the same molecule, in assay [4], the “MIC G(−) PV” value is given as 6.25 µM (≈ 14.3 µg/mL). For the same molecule, in the assay with S. aureus (KCTC 1621), the “MIC G(+) SA” value is reported as above 12.5 µM. For the same molecule, in assay [5], the “MIC G(−) PA” value is given as above 12.5 µM. The “MIC G(+) SE” value in [6] was 12.5 µM (≈ 28.7 µg/mL). Also, the “MIC Yeast SC” value in [7] worked out at 50 µM (≈ 115 µg/mL). Besides, in [8], the “MIC G(−) EC” value was found to be 12.5 µM (≈ 28.7 µg/mL). For the same molecule, the “MIC G(+) BS” value in assay [9] came out at 6.25 µM (≈ 14.3 µg/mL).
Turning to `CC[C@H](C)[C@H](NC(=O)[C@H](CCCCN)NC(=O)[C@H](CO)NC(=O)[C@H](Cc1ccccc1)NC(=O)[C@H](CC(C)C)NC(=O)[C@H](CCCCN)NC(=O)[C@H](CCC(=O)O)NC(=O)[C@H](CC(C)C)NC(=O)[C@H](CCCNC(=N)N)NC(=O)[C@H](CCCCN)NC(=O)[C@H](CO)NC(=O)[C@@H](NC(=O)[C@H](CCCCN)NC(=O)[C@H](CCCCN)NC(=O)[C@H](C)N)C(C)C)C(=O)N[C@@H](CCC(N)=O)C(=O)N[C@@H](CC(N)=O)C(=O)N[C@@H](CC(=O)O)C(=O)N[C@@H](CCCCN)C(N)=O` [Anal 5] (H-AKKVSKRLEKLFSKIQNDK-NH2), in assay [1], the “MIC G(−) ST” value came to 3.13 µM (≈ 7.07 µg/mL). The “MIC Yeast CA” value in assay [2] is given as 100 µM (≈ 226 µg/mL). Also, the “MIC Yeast TB” value in assay [3] is reported as 50 µM (≈ 113 µg/mL). The “MIC G(−) PV” value in assay [4] stood at 3.13 µM (≈ 7.07 µg/mL). The “MIC G(+) SA” value with S. aureus (KCTC 1621) is listed as above 12.5 µM. In addition, in assay [5], the “MIC G(−) PA” value is reported as above 12.5 µM. For the same molecule, in assay [6], the “MIC G(+) SE” value was determined as 6.25 µM (≈ 14.1 µg/mL). In [7], the “MIC Yeast SC” value lay within 50 to 100 µM. Besides, in [8], the “MIC G(−) EC” value was 6.25 µM (≈ 14.1 µg/mL). The “MIC G(+) BS” value in assay [9] was found to be 3.13 µM (≈ 7.07 µg/mL).
`CC[C@H](C)[C@H](NC(=O)[C@H](CCCCN)NC(=O)[C@H](CO)NC(=O)[C@H](Cc1ccccc1)NC(=O)[C@H](CC(C)C)NC(=O)[C@H](CCCCN)NC(=O)[C@H](CCC(=O)O)NC(=O)[C@H](CC(C)C)NC(=O)[C@H](CCCNC(=N)N)NC(=O)[C@H](CCCCN)NC(=O)[C@H](Cc1ccccc1)NC(=O)[C@@H](NC(=O)[C@H](CCCCN)NC(=O)[C@H](CCCCN)NC(=O)[C@H](C)N)C(C)C)C(=O)N[C@@H](CCC(N)=O)C(=O)N[C@@H](CC(N)=O)C(=O)N[C@@H](CC(=O)O)C(=O)N[C@@H](CCCCN)C(N)=O` [HP (2–20), reference compound] (H-AKKVFKRLEKLFSKIQNDK-NH2): the “MIC G(−) ST” value in assay [1] stood at 0.78 µM (≈ 1.81 µg/mL). For the same molecule, the “MIC Yeast CA” value in assay [2] was determined as 25 µM (≈ 58 µg/mL). Moreover, the “MIC Yeast TB” value in assay [3] was in the range of 12.5 to 25 µM. The “MIC G(−) PV” value in assay [4] was found to be 3.13 µM (≈ 7.26 µg/mL). Besides, the “MIC G(+) SA” value against S. aureus (KCTC 1621) was 12.5 µM (≈ 29 µg/mL). The “MIC G(−) PA” value in assay [5] was 12.5 µM (≈ 29 µg/mL). Further, the “MIC G(+) SE” value in assay [6] was found to be 3.13 µM (≈ 7.26 µg/mL). Further, in assay [7], the “MIC Yeast SC” value is on record as 25 µM (≈ 58 µg/mL). Besides, the “MIC G(−) EC” value in assay [8] came to 6.25 µM (≈ 14.5 µg/mL). Also, the “MIC G(+) BS” value in [9] amounted to 1.56 µM (≈ 3.62 µg/mL).
In the case of buforin II, in [10], the “release of FD4 from PC/CH liposomes” value is on record as 3.6%, the “release of FD4 from PE/PG liposomes” value stood at 5%, the “release of larger FD markers from PC/CH vesicles” value was “unable to release any of the larger markers” and the “release of larger FD markers from PE/PG liposomes” value is reported as “unable to release any of the larger markers”. Also, the “intracellular localization of FITC-conjugated peptide” value in the assay on T. begellii is reported as “distributed throughout the fungal cells”. In addition, the “amount of peptide at which retardation of the pDNA band was detected” value in assay [11] is on record as 1 µg. The binding to chitin result in [12] is listed as “recognized only chitin”.
Regarding “melittin: antimicrobial peptide known to target the cell membrane”, the “PI influx (membrane permeabilization), in words” value with C. albicans cells is recorded as “large influx of PI”.
